How the values were obtained:
Assay type in all cases: in vitro ADME
CYP2C9 = target: T1, CYP2C9 (Homo sapiens, UniProt P11712); experiment: CYP2C9 inhibition (tolbutamide methyl-hydroxylation) in pooled human liver microsomes, cocktail LC-MS/MS
T1 construct: consisting of pooled HLMs (0.5 mg/ml) or RLMs (1 mg/ml) and an NADPH-regenerating system; tissue Corning Gentest Corporation; host or cells: pooled human liver microsomes (n = 20)
Procedure: (§1) Microsomal incubation was carried out at 37 °C in a mixture of 200 μl in 0.05 M Tris/HCl buffer (pH 7.4) consisting of pooled HLMs (0.5 mg/ml) or RLMs (1 mg/ml) and an NADPH-regenerating system including MgCl2 (5 mM), G6P (10 mM), G6PDH (0.4 U/ml) and NADP (1 mM). Substrates were added into the incubation mixture and obtained the final concentrations (10 μM phenacetin for CYP1A2, 20 μM bupropion for CYP2B1/6, 20 μM tolbutamide for CYP2C9/11, 5 μM dextromethorphan for CYP2D1/6, 20 μM chlorzoxazone for CYP2E1 and 10 μM midazolam for CYP3A2/4), which were close to Km respectively. The proportion of organic solvent was not higher than 1% (v/v) in the incubation mixture. After pre-incubation for 5 min, the reaction was initiated by addition of NADP. Incubations were performed for 20 min, stopped by adding 200 μl ice-cold acetonitrile. And then 20 μl internal standard solution was added (3-acetamidophenol 2 μg/ml, chlorpropamide 2 μg/ml and mebendazole 2 μg/ml). The solution was mixed thoroughly for 3 min and centrifuged for 10 min at 16,000 × g at 4 °C. The supernatant (60 μl) was transferred to autosampler vials, and 2 μl was injected into LC-MS/MS system.
(§2) The IC50 (concentration of inhibitor to cause 50% inhibition of original enzyme activity) values were determined with the same incubation condition above. The specific concentrations of plumbagin were ranged from 0.1 μM to 50 μM. The IC50 values were calculated by plotting relative activities over the logarithm of plumbagin concentrations using GraphPad Prism 5.0 (GraphPad software Inc., CA, USA).
(§3) Cocktail probe substrates were then added and incubated for 20 min. Reactions were stopped with 200 μl ice-cold acetonitrile. The samples were treated according to the microsomal incubation method and then injected into LC-MS/MS for analysis.
(§4) Kinetic studies were performed for determining the types of inhibition on CYP by plumbagin. Pooled HLMs (0.5 mg/ml) or RLMs (1 mg/ml) with plumbagin (1 μM, 2 μM, 5 μM and 10 μM) were incubated in 0.05 M Tris/HCl buffer (pH 7.4) for 20 min at 37 °C. A series of concentrations for cocktail probe substrates were used: 2.5–20 μM phenacetin for CYP1A2; 5–40 μM bupropion for CYP2B1/6; 5–40 μM tolbutamide for CYP2C9/11; 1.25–10 μM dextromethorphan for CYP2D1/6; 5–40 μM chlorzoxazone for CYP2E1; 2.5–80 μM midazolam for CYP3A2; and 0.625–5 μM midazolam for CYP3A4. Enzyme kinetics as well as statistical analysis were performed using GraphPad Prism 5.0.
(§5) All data were presented as mean ± SD. The IC50 values were fitted by non-linear regression analysis using GraphPad Prism 5.0. The kinetic parameters were obtained by fitting velocity data to kinetic models (Michaelis-Menten) using GraphPad Prism 5.0. The Lineweaver-Burk Plot (the reciprocal of reaction velocities versus the reciprocal of substrates concentrations) was used to determine the quality of fit to a specific inhibition model. The inhibition constant (Ki) was obtained by a secondary plot using the slopes of the primary Lineweaver-Burk Plot (Km/Vmax versus inhibitor concentrations). αKi was obtained from a secondary plot using the y-intercepts of the Lineweaver-Burk plot (1/Vmax versus inhibitor concentrations). All results were analyzed in quadruplicate. One-way analysis of variance was used to estimate the significance of differences. There was statistical significance between control and test groups if p < 0.05.

CYP2E1 [1] = target: T2, CYP2E1 (Homo sapiens, UniProt P05181); experiment: CYP2E1 inhibition (chlorzoxazone 6-hydroxylation) in pooled human liver microsomes, cocktail LC-MS/MS
T2 construct: consisting of pooled HLMs (0.5 mg/ml) or RLMs (1 mg/ml) and an NADPH-regenerating system; tissue Corning Gentest Corporation; host or cells: pooled human liver microsomes (n = 20)
T2 sequence (P05181 whole entry): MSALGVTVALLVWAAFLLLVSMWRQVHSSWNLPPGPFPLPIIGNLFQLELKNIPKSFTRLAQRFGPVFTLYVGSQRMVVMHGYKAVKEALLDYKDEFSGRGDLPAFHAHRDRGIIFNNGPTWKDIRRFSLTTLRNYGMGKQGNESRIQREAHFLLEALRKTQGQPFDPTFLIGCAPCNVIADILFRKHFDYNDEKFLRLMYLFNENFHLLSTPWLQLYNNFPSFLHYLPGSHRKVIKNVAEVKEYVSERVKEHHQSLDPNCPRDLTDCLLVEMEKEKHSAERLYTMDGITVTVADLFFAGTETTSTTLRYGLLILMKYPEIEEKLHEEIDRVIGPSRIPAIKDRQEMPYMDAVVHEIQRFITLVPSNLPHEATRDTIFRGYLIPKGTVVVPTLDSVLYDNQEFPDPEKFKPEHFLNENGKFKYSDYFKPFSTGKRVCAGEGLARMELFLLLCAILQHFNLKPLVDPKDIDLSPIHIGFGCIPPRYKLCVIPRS
Procedure: as §1, §2, §3, §4, §5

CYP2E1 [2] = target: T3, CYP2E1 (Rattus norvegicus, UniProt P05182); experiment: biochemical
T3 construct: consisting of pooled HLMs (0.5 mg/ml) or RLMs (1 mg/ml) and an NADPH-regenerating system; from tissue; host or cells: rat liver microsomes prepared in house
T3 sequence (P05182 whole entry): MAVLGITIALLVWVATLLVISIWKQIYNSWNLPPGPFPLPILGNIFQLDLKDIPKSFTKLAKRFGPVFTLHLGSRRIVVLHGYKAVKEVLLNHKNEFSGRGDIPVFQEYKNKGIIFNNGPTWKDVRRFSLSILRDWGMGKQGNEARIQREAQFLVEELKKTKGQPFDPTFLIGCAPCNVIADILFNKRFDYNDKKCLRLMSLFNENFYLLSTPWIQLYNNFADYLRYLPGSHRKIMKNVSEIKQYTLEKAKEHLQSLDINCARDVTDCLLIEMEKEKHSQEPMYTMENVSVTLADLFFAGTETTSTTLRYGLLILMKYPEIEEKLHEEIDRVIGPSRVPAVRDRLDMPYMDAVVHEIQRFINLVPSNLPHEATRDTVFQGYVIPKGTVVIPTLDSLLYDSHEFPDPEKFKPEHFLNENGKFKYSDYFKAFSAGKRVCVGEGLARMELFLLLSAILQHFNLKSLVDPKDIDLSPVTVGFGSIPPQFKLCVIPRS
Procedure: In this study, the rats were fasted overnight and killed by cervical dislocation before removal of the liver. The liver was excised, rinsed with ice-cold saline (0.9% NaCl w/v), weighed and homogenized in a […] Tris/KCl buffer (pH 7.4). Subsequently, the homogenate was centrifuged at 10,000 × g at 4 °C for 30 min. The supernatant was then centrifuged at 105,000 × g at 4 °C for 60 min. The pellet was reconstituted with […] Tris/KCl buffer (pH 7.4) and stored at −150 °C until use. The protein concentration of the liver microsomes was determined by a protein quantitative assay using bicinchoninic acid[22].
as §1
The IC50 (concentration of inhibitor to cause 50% inhibition of original enzyme activity) values were determined with the same incubation condition above. The specific concentrations of plumbagin were ranged from 0.1 μM to 50 μM. […]
All data were presented as mean ± SD. […] All results were analyzed in quadruplicate. […]

T1 sequence (P11712 whole entry): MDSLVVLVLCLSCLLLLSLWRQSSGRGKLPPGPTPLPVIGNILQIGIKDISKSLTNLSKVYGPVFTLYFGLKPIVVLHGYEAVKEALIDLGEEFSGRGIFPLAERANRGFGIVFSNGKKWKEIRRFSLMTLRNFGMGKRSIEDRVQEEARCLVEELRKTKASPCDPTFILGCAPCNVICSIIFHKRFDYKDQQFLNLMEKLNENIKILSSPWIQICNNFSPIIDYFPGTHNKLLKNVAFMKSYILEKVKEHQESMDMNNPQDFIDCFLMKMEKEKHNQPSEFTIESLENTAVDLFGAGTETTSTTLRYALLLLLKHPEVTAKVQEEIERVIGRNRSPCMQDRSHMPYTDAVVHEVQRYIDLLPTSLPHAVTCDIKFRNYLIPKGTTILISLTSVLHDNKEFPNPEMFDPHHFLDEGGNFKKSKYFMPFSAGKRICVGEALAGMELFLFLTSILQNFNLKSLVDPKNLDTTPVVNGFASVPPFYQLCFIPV

SMILES: CC1=CC(=O)c2c(O)cccc2C1=O [plumbagin, 5-hydroxy-2-methyl-1,4-naphthoquinone]
- IC50 (CYP2C9): 10.9 µM
- Ki (CYP2C9): 2.16 µM
- Type of inhibition (CYP2C9): mixed-type
- αKi (CYP2C9; HLMs, secondary plot of y-intercepts, tolbutamide 5-40 μM): 1.46 µM
- α (CYP2C9; human, 20 min, pH 7.4): 1.48
- IC50 (CYP2E1 [1]): 6.54 µM
- Ki (CYP2E1 [1]): 0.65 µM
- Type of inhibition (CYP2E1 [1]): mixed-type
- αKi (CYP2E1 [1]; HLMs, secondary plot of y-intercepts, chlorzoxazone 5-40 μM): 2.64 µM
- α (CYP2E1 [1]; human, 20 min, pH 7.4): 0.25
- IC50 (CYP2E1 [2]): 3.72 µM
- Ki (CYP2E1 [2]): 6.28 µM
- Type of inhibition (CYP2E1 [2]): competitive
